Read-outs that look alike come from different tables or passages of the source.
Experiments:
[1] = target: human D3R (Homo sapiens (Human), UniProt P35462); test: Radioligand competition binding vs. [3H]-(R)-(+)-7-OH-DPAT, hD3R; conditions: for D4R/D3R / D2R/D3R: ratio of Ki; for D2R/D3R: D3R selectivity over D2R
[2] = target: human D4.4 (Homo sapiens (Human), UniProt P21917); test: Radioligand competition binding vs. [3H]-(R)-(+)-7-OH-DPAT, hD4R; conditions: HEK293 cells stably expressing hD4R, read-out: D4R Ki ± SEM
[3] = target: human D2LR (Homo sapiens (Human), UniProt P14416); test: Radioligand competition binding vs. [3H]-(R)-(+)-7-OH-DPAT, hD2R
[4] = vs. [3H]-(R)-(+)-7-OH-DPAT, HEK293 cells stably expressing hD3R, read-out: D3R Ki ± SEM
[5] = vs. [3H]-(R)-(+)-7-OH-DPAT, HEK293 cells stably expressing hD2R, read-out: D2R Ki ± SEM

Chain of human D2LR (P14416 whole entry): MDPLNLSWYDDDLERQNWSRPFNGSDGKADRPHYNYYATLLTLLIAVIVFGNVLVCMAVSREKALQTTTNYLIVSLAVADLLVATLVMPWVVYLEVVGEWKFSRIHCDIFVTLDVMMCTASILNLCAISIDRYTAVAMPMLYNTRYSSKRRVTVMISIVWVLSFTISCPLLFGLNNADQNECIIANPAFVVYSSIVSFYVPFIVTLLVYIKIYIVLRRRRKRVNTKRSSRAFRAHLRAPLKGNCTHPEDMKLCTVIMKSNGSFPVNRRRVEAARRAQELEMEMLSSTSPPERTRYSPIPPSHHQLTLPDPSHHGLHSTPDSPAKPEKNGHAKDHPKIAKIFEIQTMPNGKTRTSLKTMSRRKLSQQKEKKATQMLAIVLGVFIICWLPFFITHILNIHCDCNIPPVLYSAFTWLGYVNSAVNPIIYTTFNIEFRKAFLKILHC
Chain of human D3R (P35462 whole entry): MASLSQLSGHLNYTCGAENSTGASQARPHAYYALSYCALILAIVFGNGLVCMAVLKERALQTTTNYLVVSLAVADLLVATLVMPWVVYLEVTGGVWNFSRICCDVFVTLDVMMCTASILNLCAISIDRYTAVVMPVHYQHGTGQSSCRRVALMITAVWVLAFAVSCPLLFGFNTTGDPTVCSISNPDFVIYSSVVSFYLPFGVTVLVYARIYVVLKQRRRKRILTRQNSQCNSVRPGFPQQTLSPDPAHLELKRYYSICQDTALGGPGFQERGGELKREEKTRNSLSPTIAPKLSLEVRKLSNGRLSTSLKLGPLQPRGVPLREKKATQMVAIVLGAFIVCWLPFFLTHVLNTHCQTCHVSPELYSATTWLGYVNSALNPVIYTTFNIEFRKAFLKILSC
Chain of human D4.4 (P21917 whole entry): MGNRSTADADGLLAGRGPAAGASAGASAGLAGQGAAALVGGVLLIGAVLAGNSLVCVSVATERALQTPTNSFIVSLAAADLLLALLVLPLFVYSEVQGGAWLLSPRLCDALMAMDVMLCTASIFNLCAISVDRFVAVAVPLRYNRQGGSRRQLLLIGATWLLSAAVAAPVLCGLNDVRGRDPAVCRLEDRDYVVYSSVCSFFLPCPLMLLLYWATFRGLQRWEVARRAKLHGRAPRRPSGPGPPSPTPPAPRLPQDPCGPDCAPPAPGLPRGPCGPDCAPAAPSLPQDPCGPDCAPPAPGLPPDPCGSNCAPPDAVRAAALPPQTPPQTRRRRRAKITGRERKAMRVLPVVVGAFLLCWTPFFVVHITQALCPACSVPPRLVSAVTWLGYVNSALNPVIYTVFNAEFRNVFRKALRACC

Compound: CCCN(CCC)c1ccc(C2CN(CCC)[C@@H](C)CO2)cn1 (stereo partly drawn) [AB04-52, 5-((5S)-5-methyl-4-propylmorpholin-2-yl)-N,N-dipropylpyridin-2-amine]
- D4R/D3R ([1]; vs. [3H]-(R)-(+)-7-OH-DPAT): >4.74
- D2R/D3R ([1]; vs. [3H]-(R)-(+)-7-OH-DPAT): 0.391
- Ki [1, 4]: 21.1 µM
- Ki [2]: > 100 µM
- Ki [3, 5]: 8.24 µM

Compound: C[C@H]1CO[C@@H](c2ccc(N)nc2)CN1 [AB04-85B, 5-((2S,5S)-5-methylmorpholin-2-yl)pyridin-2-amine]
- D2R/D3R ([1]; vs. [3H]-(R)-(+)-7-OH-DPAT): 5.52
- Ki [1, 4]: 0.424 ± 0.0324 µM
- Ki [3, 5]: 2.34 µM

Compound: CCCN1CCO[C@@H]2c3cc(OCCCCOc4ccc5c(c4)NC(=O)CC5)ccc3OC[C@H]21 [AB04-38, 7-(4-(((4aR,10bR)-4-propyl-3,4,4a,10b-tetrahydro-2H,5H-chromeno[4,3-b][1,4]oxazin-9-yl)oxy)butoxy)-3,4-dihydroquinolin-2(1H)-one]
- D2R/D3R ([1]; vs. [3H]-(R)-(+)-7-OH-DPAT): 6.35
- Ki [1, 4]: 1.59 µM
- Ki [3, 5]: 10.1 µM

Compound: CCCN1CCO[C@@H]2c3cc(OCCCCNC(=O)c4cc5cccnc5[nH]4)ccc3OC[C@H]21 [AB04-42, N-(4-(((4aR,10bR)-4-propyl-3,4,4a,10b-tetrahydro-2H,5H-chromeno[4,3-b][1,4]oxazin-9-yl)oxy)butyl)-1H-pyrrolo[2,3-b]pyridine-2-carboxamide]
- D2R/D3R ([1]; vs. [3H]-(R)-(+)-7-OH-DPAT): 3.12
- Ki [1, 4]: 8.66 µM
- Ki [3, 5]: 27 µM

Compound: C[C@H]1CO[C@@H](c2ccc(N)nc2)CN1CC1CC1CNC(=O)c1cc2ccccc2[nH]1 (stereo partly drawn) [trans-AB05-27A, trans-N-((2-(((2S,5S)-2-(6-aminopyridin-3-yl)-5-methylmorpholino)methyl)cyclopropyl)methyl)-1H-indole-2-carboxamide]
- D2R/D3R ([1]; vs. [3H]-(R)-(+)-7-OH-DPAT): 0.182
- Ki [1, 4]: 1.19 µM
- Ki ([3]; vs. [3H]-(R)-(+)-7-OH-DPAT, HEK293 cells stably expressing hD2R, listed as AB05-27A, read-out: D2R Ki ± SEM): 0.216 µM
- Ki [3, 5]: 0.216 ± 0.0326 µM

Compound: C[C@H]1CO[C@H](c2ccc(N)nc2)CN1CC1CC1CNC(=O)c1cc2ccccc2[nH]1 (mixture of isomers) [rac-trans-AB05-26, trans-N-((2-(((2R,5S)-2-(6-aminopyridin-3-yl)-5-methylmorpholino)methyl)cyclopropyl)methyl)-1H-indole-2-carboxamide]
- D2R/D3R ([1]; vs. [3H]-(R)-(+)-7-OH-DPAT): 0.213
- Ki [1, 4]: 66.2 µM
- Ki [3, 5]: 14.1 µM

Compound: C[C@H]1CO[C@H](c2ccc(N)nc2)CN1 [AB04-85A, 5-((2R,5S)-5-methylmorpholin-2-yl)pyridin-2-amine]
- D2R/D3R ([1]; vs. [3H]-(R)-(+)-7-OH-DPAT): 4.67
- Ki [1, 4]: 1.52 µM
- Ki [3, 5]: 7.1 µM

Compound: C[C@H]1CO[C@@H](c2ccc(N)nc2)CN1C/C=C/COc1ccc2c(c1)NC(=O)CC2 [FOB01-44, 7-(((E)-4-((2S,5S)-2-(6-aminopyridin-3-yl)-5-methylmorpholino)but-2-en-1-yl)oxy)-3,4-dihydroquinolin-2(1H)-one]
- D2R/D3R ([1]; vs. [3H]-(R)-(+)-7-OH-DPAT): 0.297
- Ki [1, 4]: 1.15 µM
- Ki [3, 5]: 0.341 ± 0.0276 µM

Compound: CCCN1CCO[C@@H]2c3cc(OCCCCNC(=O)c4ccc5c(c4)Cc4ccccc4-5)ccc3OC[C@H]21 [SLC01-24, N-(4-(((4aR,10bR)-4-propyl-3,4,4a,10b-tetrahydro-2H,5H-chromeno[4,3-b][1,4]oxazin-9-yl)oxy)butyl)-9H-fluorene-2-carboxamide]
- D2R/D3R ([1]; vs. [3H]-(R)-(+)-7-OH-DPAT): 8.33
- Ki [1, 4]: 0.806 ± 0.185 µM
- Ki [3, 5]: 6.71 µM

Compound: C[C@H]1CO[C@H](c2ccc(N)nc2)CN1C/C=C/COc1ccc2c(c1)NC(=O)CC2 [FOB01-42, 7-(((E)-4-((2R,5S)-2-(6-aminopyridin-3-yl)-5-methylmorpholino)but-2-en-1-yl)oxy)-3,4-dihydroquinolin-2(1H)-one]
- D2R/D3R ([1]; vs. [3H]-(R)-(+)-7-OH-DPAT): 0.289
- Ki [1, 4]: 73 µM
- Ki [3, 5]: 21.1 µM

Compound: C[C@H]1CO[C@@H](c2ccc(N)nc2)CN1CC1CC1CNC(=O)c1cc2ccccc2[nH]1 (stereo partly drawn) [trans-AB05-27B, trans-N-((2-(((2S,5S)-2-(6-aminopyridin-3-yl)-5-methylmorpholino)methyl)cyclopropyl)methyl)-1H-indole-2-carboxamide]
- D2R/D3R ([1]; vs. [3H]-(R)-(+)-7-OH-DPAT): 1.75
- Ki ([1]; vs. [3H]-(R)-(+)-7-OH-DPAT, HEK293 cells stably expressing hD3R, listed as AB05-27B, read-out: D3R Ki ± SEM): 0.404 µM
- Ki [1, 4]: 0.404 ± 0.034 µM
- Ki [3, 5]: 0.707 ± 0.0198 µM

Compound: CCCN1CCO[C@@H]2c3cc(OCCCCNC(=O)c4ccc5scnc5c4)ccc3OC[C@H]21 [AB04-41, N-(4-(((4aR,10bR)-4-propyl-3,4,4a,10b-tetrahydro-2H,5H-chromeno[4,3-b][1,4]oxazin-9-yl)oxy)butyl)benzo[d]thiazole-5-carboxamide]
- D2R/D3R ([1]; vs. [3H]-(R)-(+)-7-OH-DPAT): 4.30
- Ki [1, 4]: 2.13 µM
- Ki [3, 5]: 9.16 µM

Compound: C[C@H]1CO[C@@H](c2ccc(N)nc2)CN1CC1CC1CNC(=O)c1cc2ccccc2[nH]1 (stereo partly drawn) [cis-FOB01-59A, cis-N-((2-(((2S,5S)-2-(6-aminopyridin-3-yl)-5-methylmorpholino)methyl)cyclopropyl)methyl)-1H-indole-2-carboxamide]
- D2R/D3R ([1]; vs. [3H]-(R)-(+)-7-OH-DPAT): 0.498
- Ki [1, 4]: 2.15 µM
- Ki [3, 5]: 1.07 µM

Compound: CCCN(CCC)c1ccc(C2CN(CCC)C(C)CO2)cn1 (centres unmarked) [AB03-14]
- Ki [1, 4]: > 10 µM
- Ki [3, 5]: > 5 µM

Compound: CCCN1CC(c2ccc(N)nc2)OC[C@@H]1C (some centres unmarked) [AB03-02, reference compound]
- D4R/D3R ([1]; vs. [3H]-(R)-(+)-7-OH-DPAT): 1.58
- D2R/D3R ([1]; vs. [3H]-(R)-(+)-7-OH-DPAT): 9.41
- Ki [1, 4]: 0.185 ± 0.0205 µM
- Ki [2]: 0.292 ± 0.0222 µM
- Ki ([3]; vs. [3H]-(R)-(+)-7-OH-DPAT, HEK293, read-out: hD2LR Ki ± SEM): 1.74 ± 0.348 µM

Compound: C[C@H]1CO[C@H](c2ccc(N)nc2)CN1CCCCOc1ccc2c(c1)NC(=O)CC2 [AB04-95, 7-(4-((2R,5S)-2-(6-aminopyridin-3-yl)-5-methylmorpholino)butoxy)-3,4-dihydroquinolin-2(1H)-one]
- D2R/D3R ([1]; vs. [3H]-(R)-(+)-7-OH-DPAT): 0.110
- Ki [1, 4]: 24.2 µM
- Ki [3, 5]: 2.66 µM

Compound: CCCN1CCO[C@@H]2c3cc(OCCCCNC(=O)c4nc5ccccc5s4)ccc3OC[C@H]21 [SLC01-35, N-(4-(((4aR,10bR)-4-propyl-3,4,4a,10b-tetrahydro-2H,5H-chromeno[4,3-b][1,4]oxazin-9-yl)oxy)butyl)benzo[d]thiazole-2-carboxamide]
- D2R/D3R ([1]; vs. [3H]-(R)-(+)-7-OH-DPAT): 4.14
- Ki [1, 4]: 1.33 µM
- Ki [3, 5]: 5.51 µM

Compound: O=C(NCCCCNC1COc2ccc(O)cc2C1=O)c1cc2ccccc2[nH]1 (single isomer, unassigned) [SLC02-16B, N-(4-((6-hydroxy-4-oxochroman-3-yl)amino)butyl)-1H-indole-2-carboxamide]
- D2R/D3R ([1]; vs. [3H]-(R)-(+)-7-OH-DPAT): 0.808
- Ki [1, 4]: 1.77 µM
- Ki [3, 5]: 1.43 µM

Compound: CCCN1CCO[C@@H]2c3cc(O)ccc3OC[C@@H]21 (racemic) [(±)-cis-2, reference compound]
- Ki [1]: > 10 µM
- Ki [3]: > 10 µM

Compound: CCCN1CCO[C@@H]2c3cc(OCCCCNC(=O)c4cc5ccccc5o4)ccc3OC[C@H]21 [SLC01-26, N-(4-(((4aR,10bR)-4-propyl-3,4,4a,10b-tetrahydro-2H,5H-chromeno[4,3-b][1,4]oxazin-9-yl)oxy)butyl)benzofuran-2-carboxamide]
- D2R/D3R ([1]; vs. [3H]-(R)-(+)-7-OH-DPAT): 1.57
- Ki [1, 4]: 6.01 µM
- Ki [3, 5]: 9.45 µM

Compound: CCCN1CCO[C@@H]2c3cc(OCCCCNC(=O)c4cc5ccccc5[nH]4)ccc3OC[C@H]21 [SLC01-25, N-(4-(((4aR,10bR)-4-propyl-3,4,4a,10b-tetrahydro-2H,5H-chromeno[4,3-b][1,4]oxazin-9-yl)oxy)butyl)-1H-indole-2-carboxamide]
- D2R/D3R ([1]; vs. [3H]-(R)-(+)-7-OH-DPAT): 6.30
- Ki [1, 4]: 0.613 ± 0.0506 µM
- Ki [3, 5]: 3.86 µM

Compound: C[C@H]1CO[C@H](c2ccc(N)nc2)CN1CC1CC1CNC(=O)c1cc2ccccc2[nH]1 (stereo partly drawn) [cis-FOB01-60B, cis-N-((2-(((2R,5S)-2-(6-aminopyridin-3-yl)-5-methylmorpholino)methyl)cyclopropyl)methyl)-1H-indole-2-carboxamide]
- D2R/D3R ([1]; vs. [3H]-(R)-(+)-7-OH-DPAT): 0.235
- Ki [1, 4]: 32.9 µM
- Ki [3, 5]: 7.73 µM

Compound: C[C@H]1CO[C@@H](c2ccc(N)nc2)CN1CCCCOc1ccc2c(c1)NC(=O)CC2 [AB04-96, 7-(4-((2S,5S)-2-(6-aminopyridin-3-yl)-5-methylmorpholino)butoxy)-3,4-dihydroquinolin-2(1H)-one]
- D2R/D3R ([1]; vs. [3H]-(R)-(+)-7-OH-DPAT): 1.11
- D3R affinity, fold better than its (2R,5S) diastereoisomer ([1]; vs. [3H]-(R)-(+)-7-OH-DPAT): 775 fold
- Ki [1, 4]: 0.0312 ± 0.00872 µM
- Ki [3, 5]: 0.0346 ± 0.00486 µM

Compound: O=C1CCc2ccc(OCCCCN3CCO[C@@H]4c5cc(O)ccc5OC[C@H]43)cc2N1 [SLC02-11, 7-(4-((4aR,10bR)-9-hydroxy-2,3,4a,10b-tetrahydro-4H,5H-chromeno[4,3-b][1,4]oxazin-4-yl)butoxy)-3,4-dihydroquinolin-2(1H)-one]
- D2R/D3R ([1]; vs. [3H]-(R)-(+)-7-OH-DPAT): 0.554
- Ki [1, 4]: 11.3 µM
- Ki [3, 5]: 6.26 µM

Compound: Oc1ccc2c(c1)[C@H]1OCCN[C@@H]1CO2 [AB04-75, (4aR,10bR)-3,4,4a,10b-tetrahydro-2H,5H-chromeno[4,3-b][1,4]oxazin-9-ol, reference compound]
- D2R/D3R ([1]; vs. [3H]-(R)-(+)-7-OH-DPAT): 10.5
- Ki [1, 4]: 0.403 ± 0.00555 µM
- Ki [3, 5]: 4.25 µM

Compound: C[C@H]1CO[C@@H](c2ccc(N)nc2)CN1CC1CC1CNC(=O)c1cc2ccccc2[nH]1 (stereo partly drawn) [cis-FOB01-59B, cis-N-((2-(((2S,5S)-2-(6-aminopyridin-3-yl)-5-methylmorpholino)methyl)cyclopropyl)methyl)-1H-indole-2-carboxamide]
- D2R/D3R ([1]; vs. [3H]-(R)-(+)-7-OH-DPAT): 0.435
- Ki [1, 4]: 0.276 ± 0.03 µM
- Ki [3, 5]: 0.12 ± 0.0166 µM

Compound: O=C(NCCCCNC1COc2ccc(O)cc2C1=O)c1cc2ccccc2[nH]1 (single isomer, unassigned) [SLC02-16A, N-(4-((6-hydroxy-4-oxochroman-3-yl)amino)butyl)-1H-indole-2-carboxamide]
- D2R/D3R ([1]; vs. [3H]-(R)-(+)-7-OH-DPAT): 0.710
- Ki [1, 4]: 0.354 ± 0.0451 µM
- Ki [3, 5]: 0.245 ± 0.032 µM

Compound: CCCN1CCO[C@@H]2c3cc(OCCCCN4C(=O)c5ccccc5C4=O)ccc3OC[C@H]21 [AB02-119]
- D2R/D3R ([1]; vs. [3H]-(R)-(+)-7-OH-DPAT): 2.11
- Ki [1, 4]: 1.19 µM
- Ki [3, 5]: 2.51 µM

Compound: C[C@H]1CO[C@H](c2ccc(N)nc2)CN1CC1CC1CNC(=O)c1cc2ccccc2[nH]1 (stereo partly drawn) [cis-FOB01-60A, cis-N-((2-(((2R,5S)-2-(6-aminopyridin-3-yl)-5-methylmorpholino)methyl)cyclopropyl)methyl)-1H-indole-2-carboxamide]
- D2R/D3R ([1]; vs. [3H]-(R)-(+)-7-OH-DPAT): 0.431
- Ki [1, 4]: 26.2 µM
- Ki [3, 5]: 11.3 µM

Reference: patent publication US12479838B2, “D3 receptor agonist compounds; methods of preparation; intermediates thereof; and methods of use thereof” (THE UNITED STATES OF AMERICA, AS REPRESENTED BY THE …, priority 2019, dated 2025)
